According to paper PMC12040169 (PLOS Biology, 2025):

Test: in vitro
Details: human, hela cells, % viability

Structure (SMILES) | viability at 28.5 h, 10 µM [%]
CC(=O)N1CCc2cc(C(O)CN3CCN(c4nsc5ccccc45)CC3)ccc21 (centres unmarked) [CBK283092] | 93.3
OC1(c2cccnc2)CCCN(Cc2ccccc2F)CC1 (centres unmarked) [CBK283009] | 96.4
Cc1ccc(-c2csc3c(=O)[nH]c(N4CCCC(C(=O)NCC(N)=O)C4)nc23)cc1 (centres unmarked) [CBK215542] | 98.3
COc1ccc(N2C(N)=C(C#N)C(c3cccc(OC(C)C)c3)C3=C2CCS3(=O)=O)cc1 (centres unmarked) [CBK293992] | 85.6
N#Cc1ccc(-c2csc(NC(=O)c3ccc(Cl)s3)n2)cc1 [CBK287321] | 100
OCC1CCN(Cc2cnn(C3CCCCC3)c2)C1 (centres unmarked) [CBK283086] | 88.4
Cc1ccc(C)c(-c2csc3c(=O)[nH]cnc23)c1 [CBK288556] | 101
COc1ccc(C(C)C)cc1-c1nccnc1NCc1ccc2c(c1)OCO2 [CBK036683] | 81
O=C(Nc1cccc2cccnc12)c1ccc([N+](=O)[O-])o1 [CBK268007] | 61.1
CN1CCN(CC(=O)Nc2sc3c(c2C(=O)Nc2ccccc2)CCCC3)CC1 [CBK268431] | 117
CCn1ncnc1CN(c1cccc(CO)c1)C1Cc2ccccc2C1 [CBK304173] | 111
CCCc1ncc(C[n+]2ccccc2C)c(N)n1 [CBK024255C] | 96.1
CSCc1nc(CS(=O)(=O)Cc2cccc(C(F)(F)F)c2)no1 [CBK023617] | 87.8
O=C(Cc1ccc(F)cc1)Nc1nc(-c2cccs2)cs1 [CBK287736] | 82.3
CC(C)c1ccc(/C=C/C(=O)NC2CC2)cc1 [CBK149640] | 105
COc1cc(C#N)ccc1OCc1ccc2nc(C(F)(F)F)cc(Cl)c2c1 [CBK002589] | 98.3
CC(C)Oc1ncccc1OCc1ccccc1 [CBK001457] | 124
O=C(Nc1sc2c(c1C(=O)N1CCOCC1)CCCCC2)c1cccs1 [CBK307099] | 105
Cc1ccc(S(=O)(=O)NCCN2CCN(S(=O)(=O)c3ccc(C)cc3)CC2)cc1 [CBK265461] | 115
CN1CCC(=NNC(=O)CN(c2cccc([N+](=O)[O-])c2)S(=O)(=O)c2ccccc2)CC1 [CBK262727] | 90.3
CCCCN(C=O)c1c(CC)nc2ccc(C(=O)N3CCN(C)CC3)cn12 [CBK145707] | 93.1
COC(=O)CO[C@@H]1CO[C@H]2[C@@H]1OC[C@@H]2NC(=S)Nc1ccccc1 [CBK289459] | 88.3

Structure (SMILES) | viability at 28.5 h, 10 µM [%]
O=C(CN1CCC(c2ccc(F)cc2)CC1)N1CCOCC1 [CBK283683] | 88.4
Nc1ncnc(NCCC(c2ccccc2)c2ccccc2)c1[N+](=O)[O-] [CBK267294] | 90.5
CCn1c(COc2cccc3cccnc23)nnc1SCC(=O)c1ccc(F)cc1 [CBK265656] | 86.8
O=C(O)/C(Cl)=C(\Cl)C(=O)N1CCC2(CC1)OCCc1c2[nH]c2ccccc12 [CBK047035] | 85
CC(C(=O)Nc1cccc(F)c1)N1CCN(Cc2cccnc2)CC1 (centres unmarked) [CBK305408] | 109
Cc1nc(S)[nH]c(=O)c1Cc1ccc(F)cc1 [CBK288456] | 107
COc1ccc(C(=O)CN2CCC3(CC2)CC(=O)c2cc(Br)ccc2O3)cc1 [CBK162265] | 114
Cc1cc(CN2CCC(O)(c3cccnc3F)CC2)oc1C [CBK282124] | 83
COC[C@@H]1OC[C@@]2(C)C3CC[C@@H](O)[C@@H](CC(=O)N4CCCCC4)[C@]3(C)CC[C@H]2O1 (some centres unmarked) [CBK289573] | 88.3
CCN(CC)C(=O)c1ccccc1NS(=O)(=O)c1ccc(OC)c(OC)c1 [CBK045423] | 92.6
O=C(NCC1CCCO1)NC(=O)c1nsc2ccccc12 (centres unmarked) [CBK019827] | 113
O=C(Cc1csc(-c2ccc(Cl)cc2)n1)Nc1ccccn1 [CBK107364] | 85.8
O=C(CCN1C(=O)COc2ccccc21)NCCCN1CCN(c2ccccc2F)CC1 [CBK294469] | 102
CCN(NC(=O)c1ccccc1-n1cccc1)c1ccc(C)cc1 [CBK161507] | 110
Cc1n[nH]c(C)c1CNC(=O)C1CCN(Cc2ccc(F)cc2)CC1 [CBK282502] | 92
CC(C)(C)c1cc(C(=O)O)c(CN2CCOCC2)o1 [CBK264052] | 88.7
CC(=O)c1ccc(-c2cc(C(=O)NCc3cccc(C(F)(F)F)c3)cnc2-c2ccccc2)s1 [CBK036641] | 90.1
Cc1c(C(C)NCC(O)COc2ccc(C#N)cc2)cnn1C (centres unmarked) [CBK304881] | 97.5
CC(=O)N1CCc2c(sc(NC(=O)c3ccccc3C)c2C#N)C1 [CBK304681] | 78.7
CC1=NN(c2ccccc2)C(=O)/C1=C1/C(=O)Nc2c(C)cc(Br)cc21 [CBK263950] | 92
O=C(NO)Nc1cc(Cl)cc(Cl)c1 [CBK016430] | 109
C=CCNC(=O)Cn1c(-c2ccco2)cc2cccnc21 [CBK282719] | 82.6
